Source: the NIST ThermoML archive (doi:10.1021/je200213h)

Test: xn = mol fraction of the nth substance listed
Conditions: 101 kPa, Liquid, Capillary tube (Ostwald / Ubbelohde) method

CCC(C)(C)C [2,2-dimethylbutane] + CC(C)CCl
kinematic viscosity [m2/s]
Conditions	283.15 K	298.15 K	313.15 K
x1 = 0.0487	5.82e-07	4.94e-07	4.366e-07
x1 = 0.0994	5.816e-07	4.941e-07	4.365e-07
x1 = 0.1995	5.814e-07	4.939e-07	4.362e-07
x1 = 0.2985	5.821e-07	4.939e-07	4.363e-07
x1 = 0.3993	5.834e-07	4.942e-07	4.366e-07
x1 = 0.5018	5.866e-07	4.958e-07	4.38e-07
x1 = 0.6011	5.899e-07	4.986e-07	4.402e-07
x1 = 0.6985	5.953e-07	5.025e-07	4.439e-07
x1 = 0.7995	6.024e-07	5.071e-07	4.476e-07
x1 = 0.8988	6.115e-07	5.13e-07	4.524e-07
x1 = 0.9479	6.158e-07	5.163e-07	4.542e-07

CCC(C)(C)C [2,2-dimethylbutane] + CCC(C)Cl
kinematic viscosity [m2/s]
Conditions	283.15 K	298.15 K	313.15 K
x1 = 0.0448	5.266e-07	4.621e-07	4.07e-07
x1 = 0.0993	5.3e-07	4.64e-07	4.086e-07
x1 = 0.2003	5.356e-07	4.679e-07	4.12e-07
x1 = 0.301	5.421e-07	4.719e-07	4.157e-07
x1 = 0.3993	5.494e-07	4.761e-07	4.2e-07
x1 = 0.4989	5.579e-07	4.815e-07	4.251e-07
x1 = 0.6039	5.683e-07	4.88e-07	4.309e-07
x1 = 0.7002	5.793e-07	4.949e-07	4.368e-07
x1 = 0.8033	5.935e-07	5.036e-07	4.438e-07
x1 = 0.9028	6.07e-07	5.122e-07	4.508e-07
x1 = 0.9518	6.147e-07	5.165e-07	4.546e-07

CCC(C)(C)C [2,2-dimethylbutane] + CCCCCl
kinematic viscosity [m2/s]
Conditions	283.15 K	298.15 K	313.15 K
x1 = 0.0524	5.594e-07	4.802e-07	4.231e-07
x1 = 0.101	5.603e-07	4.809e-07	4.239e-07
x1 = 0.1995	5.627e-07	4.822e-07	4.253e-07
x1 = 0.3081	5.663e-07	4.846e-07	4.275e-07
x1 = 0.3985	5.705e-07	4.867e-07	4.294e-07
x1 = 0.499	5.76e-07	4.898e-07	4.322e-07
x1 = 0.5984	5.822e-07	4.943e-07	4.362e-07
x1 = 0.7015	5.899e-07	5e-07	4.409e-07
x1 = 0.7986	5.992e-07	5.063e-07	4.463e-07
x1 = 0.9002	6.098e-07	5.133e-07	4.52e-07
x1 = 0.9487	6.16e-07	5.17e-07	4.55e-07

CC(C)(C)Cl [2-chloro-2-methylpropane] + CCC(C)CC
kinematic viscosity [m2/s]
Conditions	283.15 K	298.15 K	313.15 K
x2 = 0.0496	6.755e-07	5.548e-07	4.681e-07
x2 = 0.0995	6.538e-07	5.4e-07	4.576e-07
x2 = 0.2046	6.148e-07	5.14e-07	4.4e-07
x2 = 0.3023	5.848e-07	4.937e-07	4.256e-07
x2 = 0.405	5.592e-07	4.767e-07	4.14e-07
x2 = 0.5064	5.394e-07	4.637e-07	4.051e-07
x2 = 0.6033	5.235e-07	4.536e-07	3.984e-07
x2 = 0.7038	5.114e-07	4.462e-07	3.933e-07
x2 = 0.8012	5.026e-07	4.41e-07	3.9e-07
x2 = 0.9018	4.964e-07	4.377e-07	3.881e-07
x2 = 0.9514	4.946e-07	4.372e-07	3.88e-07

CC(C)(C)Cl [2-chloro-2-methylpropane] + CCCCCC
kinematic viscosity [m2/s]
Conditions	283.15 K	298.15 K	313.15 K
x2 = 0.0495	6.722e-07	5.527e-07	4.671e-07
x2 = 0.0989	6.489e-07	5.369e-07	4.565e-07
x2 = 0.2019	6.091e-07	5.105e-07	4.391e-07
x2 = 0.2987	5.81e-07	4.916e-07	4.266e-07
x2 = 0.4043	5.575e-07	4.756e-07	4.162e-07
x2 = 0.4985	5.415e-07	4.651e-07	4.095e-07
x2 = 0.6024	5.287e-07	4.571e-07	4.048e-07
x2 = 0.7017	5.203e-07	4.516e-07	4.019e-07
x2 = 0.7996	5.151e-07	4.489e-07	4.009e-07
x2 = 0.9025	5.123e-07	4.478e-07	4.016e-07
x2 = 0.9498	5.119e-07	4.483e-07	4.023e-07

CC(C)(C)Cl [2-chloro-2-methylpropane] + CCCCCCC
kinematic viscosity [m2/s]
Conditions	283.15 K	298.15 K	313.15 K
x2 = 0.0519	6.84e-07	5.603e-07	4.741e-07
x2 = 0.1021	6.722e-07	5.532e-07	4.711e-07
x2 = 0.2015	6.546e-07	5.438e-07	4.675e-07
x2 = 0.3006	6.44e-07	5.389e-07	4.666e-07
x2 = 0.3997	6.391e-07	5.38e-07	4.679e-07
x2 = 0.5027	6.376e-07	5.391e-07	4.699e-07
x2 = 0.6011	6.397e-07	5.434e-07	4.735e-07
x2 = 0.7014	6.441e-07	5.489e-07	4.78e-07
x2 = 0.8007	6.504e-07	5.572e-07	4.832e-07
x2 = 0.8966	6.591e-07	5.652e-07	4.894e-07
x2 = 0.9518	6.651e-07	5.706e-07	4.944e-07

CCC(C)Cl (stereo unspecified) [2-chlorobutane] + CCC(C)CC
kinematic viscosity [m2/s]
Conditions	283.15 K	298.15 K	313.15 K
x2 = 0.0518	5.193e-07	4.574e-07	4.031e-07
x2 = 0.101	5.142e-07	4.542e-07	4.004e-07
x2 = 0.2014	5.066e-07	4.483e-07	3.958e-07
x2 = 0.3025	4.995e-07	4.431e-07	3.919e-07
x2 = 0.4027	4.943e-07	4.39e-07	3.885e-07
x2 = 0.4998	4.906e-07	4.362e-07	3.865e-07
x2 = 0.6043	4.881e-07	4.345e-07	3.851e-07
x2 = 0.7008	4.87e-07	4.34e-07	3.844e-07
x2 = 0.8004	4.874e-07	4.337e-07	3.847e-07
x2 = 0.8981	4.897e-07	4.344e-07	3.858e-07
x2 = 0.9481	4.911e-07	4.356e-07	3.868e-07
